Results from ChEMBL document CHEMBL5576090, “Structural Diversification of Pyrazinone Metabolites via Spontaneous Oxa-Michael Addition in Staphylococcus xylosus” (2024).
Residues, ends and D or L forms follow the SMILES beside them. *: point of attachment. Boc = CC(C)(C)OC(=O)*

What was measured:
Type in all cases: functional
[1] = Antimigratory activity against mouse MTV/TM-011 cells assessed as wound closure measured after 24 hrs by optical microscopic analysis relative to control; design: concentration or dose not given beside the values
Escherichia coli = experiment: Antibacterial activity against Escherichia coli measured after 12 hrs
Acinetobacter baumannii = experiment: Antibacterial activity against Acinetobacter baumannii measured after 12 hrs
Bacillus subtilis = experiment: Antibacterial activity against Bacillus subtilis measured after 12 hrs
Staphylococcus aureus = experiment: Antibacterial activity against methicillin-resistant Staphylococcus aureus measured after 12 hrs
Saccharomyces cerevisiae = experiment: Antifungal activity against Saccharomyces cerevisiae measured after 24 hrs
[2] = Antimigratory activity against mouse MTV/TM-011 cells assessed as wound closure at 20 uM measured after 24 hrs by optical microscopic analysis relative to control

## CC(C)Cc1cnc(C(C)C)c(=O)[nH]1
[1]
  Activity: 65%
Escherichia coli
  MIC: > 100 µM
Acinetobacter baumannii
  MIC: > 100 µM
Bacillus subtilis
  MIC: > 100 µM
Staphylococcus aureus
  MIC: > 100 µM
Saccharomyces cerevisiae
  MIC: > 100 µM

## CC(C)c1ncc(Cc2ccc(O)cc2)[nH]c1=O
[1]
  Activity: 65%
Escherichia coli
  MIC: > 100 µM
Acinetobacter baumannii
  MIC: > 100 µM
Bacillus subtilis
  MIC: > 100 µM
Staphylococcus aureus
  MIC: > 100 µM
Saccharomyces cerevisiae
  MIC: > 100 µM

## CC(C)[C@H](NC(=O)OC(C)(C)C)C(=O)N[C@H](C=O)Cc1ccccc1 (Boc-Val-Phe-aldehyde)
Escherichia coli
  MIC: > 100 µM
[2]
  Activity: 65%
Acinetobacter baumannii
  MIC: > 100 µM
Bacillus subtilis
  MIC: > 100 µM
Staphylococcus aureus
  MIC: > 100 µM
Saccharomyces cerevisiae
  MIC: > 100 µM

## CC(C)(O)c1ncc(Cc2ccc(O)cc2)[nH]c1=O
[1]
  Activity: 65%
Escherichia coli
  MIC: > 100 µM
Acinetobacter baumannii
  MIC: > 100 µM
Bacillus subtilis
  MIC: > 100 µM
Staphylococcus aureus
  MIC: > 100 µM
Saccharomyces cerevisiae
  MIC: > 100 µM

## CC(C)c1ncc(Cc2ccccc2)nc1O
[1]
  Activity: 72%
Escherichia coli
  MIC: > 100 µM
Acinetobacter baumannii
  MIC: > 100 µM
Bacillus subtilis
  MIC: > 100 µM
Staphylococcus aureus
  MIC: > 100 µM
Saccharomyces cerevisiae
  MIC: > 100 µM

## COC(C)(C)c1ncc(Cc2ccccc2)[nH]c1=O
[1]
  Activity: 65%
Escherichia coli
  MIC: > 100 µM
Acinetobacter baumannii
  MIC: > 100 µM
Bacillus subtilis
  MIC: > 100 µM
Staphylococcus aureus
  MIC: > 100 µM
Saccharomyces cerevisiae
  MIC: > 100 µM

## O=c1[nH]cc(F)c(=O)[nH]1 [FLUOROURACIL]
[1]
  Activity: 65%

## COC(C)(C)c1ncc(Cc2ccc(O)cc2)[nH]c1=O
[1]
  Activity: 65%
Escherichia coli
  MIC: > 100 µM
Acinetobacter baumannii
  MIC: > 100 µM
Bacillus subtilis
  MIC: > 100 µM
Staphylococcus aureus
  MIC: > 100 µM
Saccharomyces cerevisiae
  MIC: > 100 µM

## CC(C)(O)c1ncc(Cc2ccccc2)[nH]c1=O
[1]
  Activity: 70%
Escherichia coli
  MIC: > 100 µM
Acinetobacter baumannii
  MIC: > 100 µM
Bacillus subtilis
  MIC: > 100 µM
Staphylococcus aureus
  MIC: > 100 µM
Saccharomyces cerevisiae
  MIC: > 100 µM
